Measurements: US5108930A, “Aminoguanidine assay and applications thereof” (Alteon Inc., priority 1990, dated 1992)
“Also recorded” adds a separate entry of the source. Where two headings read alike, the source gives them in different places.

How the values were obtained:
[1] = elimination half-life of aminoguanidine in plasma of patients (HPLC assay) for measurement of kidney function; type: in vivo, human; conditions: 300 mg oral aminoguanidine hydrochloride; for half-life: human, plasma, po, 300 mg, plasma at 10, 14, 18 hours, read-out: AG T1/2 (converted)
Procedure: A) A single 300 mg dose of aminoguanidine hydrochloride is administered to the patient. Administration may be either by a capsule or tablet taken orally, or by a liquid syrup, elixir or the like.
B) After administration of the aminoguanidine or analog material, periodic collection of plasma samples is then conducted. For example, minimum 3 ml blood samples may be collected, and in the instance where aminoguanidine is administered in dry form as in a pill, the first sample may be taken 10 hours after ingestion, the second sample may be taken 14 hours after ingestion, and the third sample may be taken 18 hours after ingestion. In the instance where a liquid is administered, a similar regimen may be observed.
C) The samples collected at the intervals indicated may then be processed in accordance with the method of the present invention to determine aminoguanidine concentration.
D) Thereafter, the elimination half-life (T1/2) may be determined. Particularly, the data may be interpreted and determined by reference to the relationship wherein the slope of the logarithmic decline of plasma concentration over time is identified as the elimination rate (Kelim). Elimination half-life (T1/2) is related to Kelim by the following equation: [formula]
To a 0.5 mL plasma sample was added 0.5 mL of the working internal standard solution (10 μg/mL N-ethyl aminoguanidine tosylate in 7.5% trichloracetic acid). After vortexing (10 sec.) and centrifugation in a microfuge (Eppendorf, 14,000 rpm, 10 min.), the supernatant was decanted into a clean screw top culture tube containing 0.1 mL of an aqueous (10 mg/mL) solution of reacting agent (6-methyl-2-pyridine-carboxaldehyde). The sample was then capped tightly and reacted in a heating block (95°-100° C.) for 10 minutes. After cooling, i the sample was transferred into an HPLC vial, from which a 200 μL aliquot was injected for HPLC analysis.
A Waters Associates Model 510 pump was utilized with a radial compression column (Waters Novapak CN, 8 mm ×10 cm, 4 μm particle size) and a cyano (Waters Resolve Guard-Pak CN) precolumn. Detection was performed using a variable ultraviolet detector (Waters 484) at 302 nm. The mobile phase consisted of (volume to volume) 15% acetonitrile: 10% methanol: 75% of 0.01 M each of 1heptanesulfonic acid and sodium phosphate monobasic. Flow rate was maintained isocratically at 2.0 mL/min. at ambient temperature. Sequential automatic injections were made via a programmable sampler (Waters WISP 712).
All data acquisitions were performed with a Waters Maxima 820 system. A linear test squares analysis of the ratios of drug peak height to internal standard peak height versus concentrations added to human plasma in standards constituted daily instrumentation standardization. Interpolation from the linear regression line determined concentrations of aminoguanidine in quality control and unknown assayed samples
[…] After administration of this total dosage, plasma samples were collected from each of the patients at intervals of 10 hours, 14 hours and 18 hours after administration. The plasma samples were then taken and subjected to the assay of the present invention, in accordance with the protocol utilized in Example 1.
Accordingly, the samples were first combined with a quantity of a working internal standard solution of N-ethyl aminoguanidine tosylate in 7.5 percent trichloroacetic acid. The resulting samples were vortexed for 10 seconds and centrifuged for a period of 10 minutes at a speed of 14,000 rpm. The supernatants were then decanted into a culture tube containing 0 1 ml of an aqueous solution ([…]) of 6-methyl picolinaldehyde. The samples were then tightly capped and reacted in a heating block for a period of 10 minutes, and after cooling, were transferred into HPLC vials from which aliquots were then injected for HPLC analysis.
A radial compression chromatographic column was utilized with an isocratic flow rate and under paired-ion conditions. […]

histaminase = conditions: cited from earlier work
histamine = conditions: human pregnancy (title of cited paper); cited from earlier work
diamine oxidase = conditions: cited from earlier work
[2] = tested on: glucose-mediated cross-linking of proteins; conditions: cited from earlier work

N=C(N)NN [aminoguanidine]
relationship between aminoguanidine half-life and kidney function (GFR), in words [1]: fairly consistent and linear relationship; also recorded: excellent linear correlation; also recorded: inverse relationship
correlation coefficient r of aminoguanidine T1/2 with GFR ([1]; n=18): 0.875
half-life ([1]; patient 1, GFR 12.8): 24.6 h
half-life ([1]; patient 2, GFR 52.4): 14.2 h
half-life ([1]; patient 3, GFR 116.3): 3.83 h
half-life ([1]; patient 4, GFR 44.1): 21.8 h
half-life ([1]; patient 5, GFR 31.1): 19 h
half-life ([1]; patient 6, GFR 80.5): 6.78 h
half-life ([1]; patient 7, GFR 26.7): 14.8 h
half-life ([1]; patient 8, GFR 12.1): 24.9 h
half-life ([1]; patient 9, GFR 117.2): 4.73 h
half-life ([1]; patient 10, GFR 148.9): 3.94 h
half-life ([1]; patient 11, GFR 111.9): 6.82 h
half-life ([1]; patient 12, GFR 103.8): 6.08 h
half-life ([1]; patient 13, GFR 41.6): 14.9 h
half-life ([1]; patient 14, GFR 39.2): 9.54 h
half-life ([1]; patient 15, GFR 113.2): 4.81 h
half-life ([1]; patient 16, GFR 82.2): 6.03 h
half-life ([1]; patient 18, GFR 131.3): 7.05 h
half-life ([1]; patient 19, GFR 131.1): 6.46 h
inhibitory action on the enzyme histaminase (histaminase): inhibitory action
levels of histamine (histamine): increase levels of histamine
inhibition of diamine oxidase (diamine oxidase): selective inhibitor
inhibition of glucose-mediated cross-linking of proteins [2]: inhibitor of glucose-mediated cross-linking of proteins
